The test system of one data set is THLE-3 liver cells. The experiment in a line: Liver cell viability assay (Alamar Blue). To be noted: read-out: Human Cell Viability CC50, Liver (THLE-3); THLE-3 liver cells, Alamar Blue, 48 h. The method, then:
HEK 293 cells were maintained in MEM medium (Corning Cellgro, 10-009 CV) supplemented with 10% FBS (Sigma, F2242). […] Cells at 80% confluence were harvested and diluted in growth medium, then 45 μL of the THLE-3 cells (1,500 cells/well) or HEK 293 cells (1,500 cells/well) were dispensed per well, and plates were sealed with “Breathe Easy” oxygen permeable membranes (Diversified Biotech) and incubated at 37° C., 5% CO2, for 24 h.
In general terms: The colour change of resazurin is a common sign of viable cells or microbes.

Data set [1] concerns S. aureus Rosenbach (ATCC 25923) in established biofilms. Put plainly: S. aureus biofilm penetration and bactericidal activity assay. The following applies: read-out: S. aureus Proliferation & Biofilm Assay EC50 Killing Bacteria in Biofilms. The data set is classed as cell-based, Staphylococcus aureus. The method, then: The biofilm penetration and bactericidal activity assay was carried out with S. aureus Rosenbach (ATCC 25923) as described previously by Kwasny et al. S. aureus bacteria were streaked onto a Tryptic Soy Broth (TSB) agar plate and grown overnight at 37° C. A fresh aliquot of TSB media was inoculated with a single bacterial colony and the cultures were grown overnight at 37° C. with shaking (250 rpm). The overnight culture was then sub-cultured (1:5 dilution) into a fresh aliquot of TSB media supplemented with 0.5% glucose and grown at 37° C. for 1 h with shaking, then diluted into fresh TSB media supplemented with 0.5% glucose to achieve a final OD600 reading of 0.01. Aliquots of the diluted culture (100 μL) were dispensed to 96 well polystyrene plates without any compounds added. A second set of control plates were prepared analogously, but without any bacteria added. Plates were sealed with “Breathe Easy” oxygen permeable membranes (Diversified Biotech) and left to incubate at 37° C. without shaking (stagnant assay) until biofilm was formed. After 24 h, the planktonic cultures (or media blanks in the control plates) were removed and the plates were washed gently 3 times with 200 μL of sterile phosphate buffered saline (PBS). Then, 100 μL aliquots of fresh TSB media were dispensed to the plates along with addition of 1 μL of test compounds in DMSO. The inhibitor concentration range during the assay was 100 μM to 46 nM (3-fold dilution series). The plates were sealed with “Breathe Easy” membranes and incubated at 37° C. without shaking to allow compounds to penetrate and kill bacteria in the biofilms. After 24 h, the cultures were removed and plates were washed again gently 3 times with 200 μL of sterile PBS. The remaining bacteria in the biofilms were allowed to recover by adding 100 μL of fresh TSB media per well and incubating for 24 h at 37° C. At the end of this final incubation, bacterial growth was monitored by measuring the OD600 nm using a Molecular Devices SpectraMax Plus384 microplate reader. […] Results presented represent the averages of EC50 values obtained from at least triplicate experiments.
Next, we evaluated whether or not compounds would be bactericidal to S. aureus that were within already established biofilms. In this assay, we first grew S. aureus bacteria for 24 h in the absence of test compounds so that they could establish biofilms in the wells. After 24 h, the cultures were removed, the wells were washed gently, and fresh media was added along with test compounds or vancomycin. […] Fresh media was then added and the cultures were incubated for another 24 h to allow any viable bacteria remaining in the biofilms to emerge and grow planktonically again.

For another data set, the system named is MRSA (ATCC BAA-44). Put plainly: MRSA resistance generation, 12-day serial passage assay. In kind it is cell-based, Staphylococcus aureus. The following applies: 12 days serial passage, EC50 per passage. The method, then:
To identify potential resistance toward compounds 1 and 11, a liquid culture, 12-day serial passage assay was employed as per previously reported procedures, and using the ATCC BAA-44 MRSA strain. MRSA bacteria were streaked onto a Tryptic Soy agar plate and grown overnight at 37° C. A fresh aliquot of Tryptic Soy Broth (TSB) was inoculated with a single bacterial colony and the cultures were grown overnight at 37° C. with shaking (250 rpm). The overnight culture was then sub-cultured (1:5 dilution) into a fresh aliquot of media and grown at 37° C. for 1 h with shaking, then diluted into fresh media to achieve a final OD600 reading of 0.01. Aliquots of the diluted culture (200 μL) were dispensed to 96 well plates along with addition of 2 μL of test compounds in DMSO (1, 11, vancomycin, and a previously-reported GroEUES inhibitor, “28R”). The inhibitor concentration range during the resistance assay was 100 μM to 48.8 nM (2-fold dilution series). Plates were sealed with “Breathe Easy” oxygen permeable membranes (Diversified Biotech) and left to incubate at 37° C. without shaking (stagnant assay). OD600 readings were taken at the 24 h time point to monitor for bacterial growth. A second set of baseline control plates were prepared analogously, without any bacteria added, to correct for possible compound absorbance and/or precipitation, as well as plate and media baseline effects. […]

The mark [2] stands for this setting: Staphylococcus aureus, ATCC25923, 24 h.

“Also recorded” adds a separate entry of the source. Where two headings read alike, the source gives them in different places.

`O=C(Nc1ccccc1)c1ccccc1O` [Compound 16, 2-Hydroxy-N-phenylbenzamide]: the half-maximal cytotoxic concentration (CC50) in the data set on THLE-3 liver cells amounted to 68 µM. With `O=C(Nc1ccc(Sc2nc3ccccc3s2)cc1)c1ccccc1O` [Compound 8, N-(4-(Benzo[d]thiazol-2-ylthio)phenyl)-2-hydroxybenzamide], in data set [1] (Staphylococcus aureus, ATCC25923, established 24 h biofilm, 24 h with compound, 24 h recovery, OD600), the EC50 was 2 µM. With `CN[C@H](CC(C)C)C(=O)N[C@H]1C(=O)N[C@@H](CC(N)=O)C(=O)N[C@H]2C(=O)N[C@H]3C(=O)N[C@H](C(=O)N[C@H](C(=O)O)c4cc(O)cc(O)c4-c4cc3ccc4O)[C@H](O)c3ccc(c(Cl)c3)Oc3cc2cc(c3O[C@@H]2O[C@H](CO)[C@@H](O)[C@H](O)[C@H]2O[C@H]2C[C@](C)(N)[C@H](O)[C@H](C)O2)Oc2ccc(cc2Cl)[C@H]1O` [Vancomycin, vancomycin, reference compound], the EC50 in data set [1] (established 24 h biofilm, 24 h with compound, 24 h recovery, OD600) was above 100 µM. For the same molecule, the half-maximal cytotoxic concentration (CC50) in the data set on THLE-3 liver cells is above 100 µM. For `O=C(Nc1cccc(Cl)c1)c1cc(Br)cc(Br)c1O` [Compound 9, 3,5-Dibromo-N-(3-chlorophenyl)-2-hydroxybenzamide], in the data set with THLE-3 liver cells, the CC50 came to 9.2 µM. Still for that read-out and setting: under `O=C(Nc1ccc(Oc2ccc(Cl)cc2)c(Cl)c1)c1cc(I)cc(I)c1O` [Rafoxanide, rafoxanide, reference compound] stands 24 µM. On to `O=C(Nc1ccc(Sc2nc3ccccc3s2)c(Cl)c1)c1cccc(Br)c1O` [Compound 2, N-(4-(Benzo[d]thiazol-2-ylthio)-3-chlorophenyl)-3-bromo-2-hydroxybenzamide], for which the EC50 in data set [1] (setting [2]) is 5.6 µM. `O=C(Nc1ccc(Sc2nc3ccccc3s2)c(Cl)c1)c1cc(Br)cc(Br)c1O` [Compound 1, N-(4-(Benzo[d]thiazol-2-ylthio)-3-chlorophenyl)-3,5-dibromo-2-hydroxybenzamide]: the EC50 in data set [1] (setting [2]) came out at 2.4 µM. Further, the “ability of MRSA to generate resistance (in words)” value in the data set with MRSA (ATCC BAA-44) is on record as “not able to easily generate resistance; also recorded: retained sensitivity”. For `CC1(C)S[C@@H]2[C@H](NC(=O)[C@H](N)c3ccccc3)C(=O)N2[C@H]1C(=O)O` [Ampicillin, ampicillin, reference compound], the CC50 in the data set with THLE-3 liver cells was above 100 µM.

Turning to `O=C(Nc1ccc(Sc2nc3ccccc3s2)cc1)c1cc(Br)cc(Br)c1O` [Compound 5, N-(4-(Benzo[d]thiazol-2-ylthio)phenyl)-3,5-dibromo-2-hydroxybenzamide], the EC50 in data set [1] (setting [2]) worked out at 2.3 µM. Take `O=C(Nc1ccccc1)c1cc(Br)cc(Br)c1O` [Compound 13, 3,5-Dibromo-2-hydroxy-N-phenylbenzamide]: in the data set with THLE-3 liver cells, the cytotoxic concentration (CC50) turned out to be 25 µM. Consider `O=C(Nc1cccc(Cl)c1)c1cc(Br)ccc1O` [Compound 11, 5-Bromo-N-(3-chlorophenyl)-2-hydroxybenzamide], for which, in data set [1] (setting [2]), the EC50 is 6.9 µM. In addition, the “ability of MRSA to generate resistance (in words)” value in the data set with MRSA (ATCC BAA-44) is on record as “not able to easily generate resistance; also recorded: retained sensitivity”.

By CC50 is commonly meant the concentration at which the toxic effect on the cells reaches its halfway point.

The values above are taken from patent US20210395210A1, “INHIBITION OF BACTERIAL CHAPERONIN SYSTEMS” (THE TRUSTEES OF INDIANA UNIVERSITY, priority 2018, published 2021).
